Results reported in the NIST ThermoML archive (doi:10.1016/j.tca.2008.09.006).

Assay: xn = mol fraction of the nth substance listed
Details: 303.15 K, 101 kPa, Liquid; for viscosity: Capillary tube (Ostwald / Ubbelohde) method; for mass density: Vibrating tube method

C1CCCCC1 [cyclohexane] + CCCCN(CCCC)CCCC
x2 = 0
Details	mass density [kg/m3]	viscosity [mPa·s]
–	769.16	0.819

C1CCCCC1 [cyclohexane] + CCCO
Details	mass density [kg/m3]	viscosity [mPa·s]
x2 = 0	769.16	0.819
x2 = 0.1021	769.52	0.832
x2 = 0.2112	770.68	0.872
x2 = 0.3122	772.37	0.922
x2 = 0.4211	774.63	0.986
x2 = 0.5151	776.9	1.053
x2 = 0.6203	779.94	1.148
x2 = 0.7208	783.15	1.264
x2 = 0.8143	786.73	1.398
x2 = 0.9079	790.83	1.555

C1CCCCC1 [cyclohexane] + CCN(CC)CC
x2 = 0
Details	mass density [kg/m3]	viscosity [mPa·s]
–	769.16	0.819

CCCO [propan-1-ol] + C1CCCCC1
x1 = 1
Details	mass density [kg/m3]	viscosity [mPa·s]
–	795.66	1.727

CCCO [propan-1-ol] + CCCCN(CCCC)CCCC
x2 = 0
Details	mass density [kg/m3]	viscosity [mPa·s]
–	795.66	1.727

CCCO [propan-1-ol] + CCN(CC)CC
x2 = 0
Details	mass density [kg/m3]	viscosity [mPa·s]
–	795.66	1.727

CCCCN(CCCC)CCCC [tributylamine] + C1CCCCC1
Details	mass density [kg/m3]	viscosity [mPa·s]
x1 = 0.1023	768.32	0.848
x1 = 0.2014	768.09	0.878
x1 = 0.3008	768.17	0.914
x1 = 0.4016	768.42	0.947
x1 = 0.5002	768.78	0.985
x1 = 0.6018	769.15	1.025
x1 = 0.7021	769.57	1.058
x1 = 0.8012	769.85	1.096
x1 = 0.9024	770.12	1.13
x1 = 1	770.39	1.167

CCCCN(CCCC)CCCC [tributylamine] + CCCO
Details	mass density [kg/m3]	viscosity [mPa·s]
x1 = 0.0986	791.71	1.695
x1 = 0.1991	788.31	1.66
x1 = 0.2978	785.47	1.619
x1 = 0.4984	780.18	1.514
x1 = 0.5992	777.82	1.449
x1 = 0.6031	777.75	1.445
x1 = 0.6981	775.71	1.378
x1 = 0.7989	773.78	1.302
x1 = 0.8988	771.94	1.233
x1 = 1	770.39	1.167

CCN(CC)CC [triethylamine] + C1CCCCC1
Details	mass density [kg/m3]	viscosity [mPa·s]
x1 = 0.0995	761.78	0.697
x1 = 0.1947	755.57	0.614
x1 = 0.291	749.84	0.548
x1 = 0.3963	744.18	0.495
x1 = 0.4999	739.03	0.453
x1 = 0.5961	734.6	0.42
x1 = 0.6989	730.17	0.392
x1 = 0.7968	726.09	0.374
x1 = 0.8973	722.21	0.348
x1 = 1	718.45	0.33

CCN(CC)CC [triethylamine] + CCCO
Details	mass density [kg/m3]	viscosity [mPa·s]
x1 = 0.2007	783.21	1.189
x1 = 0.295	775.99	1.007
x1 = 0.3226	773.73	0.954
x1 = 0.393	767.95	0.845
x1 = 0.4852	760.11	0.719
x1 = 0.6128	749.28	0.574
x1 = 0.7308	739.53	0.47
x1 = 0.7637	736.85	0.444
x1 = 0.8776	727.89	0.375
x1 = 1	718.45	0.33
